Measurements taken from patent EP0141119A2, “Sulfenamide derivatives, process for their preparation, and medicaments containing these compounds” (LUDWIG HEUMANN & CO GMBH, priority 1983, dated 1985).

Biological target: T1, Histamin-H2-Rezeptoren (Cavia porcellus, UniProt P47747)
T1 construct: in vitro am isolierten rechten Vorhof des Meerschweinchens; from tissue; host or cells: isolated right atrium of the guinea pig
Assay: Determination of pA2 values in vitro on the isolated right atrium of the guinea pig (H2-antagonistic activity)
Type: cell-based, Meerschweinchen
Conditions: read-out: pA2-Werte (converted)
Description: Eine anerkannte Methode zur Bestimmung H2-antagonistischer Wirksamkeit ist die Ermittlung der pA2-Werte in vitro am isolierten rechten Vorhof des Meerschweinchens.

T1 sequence (P47747 whole entry): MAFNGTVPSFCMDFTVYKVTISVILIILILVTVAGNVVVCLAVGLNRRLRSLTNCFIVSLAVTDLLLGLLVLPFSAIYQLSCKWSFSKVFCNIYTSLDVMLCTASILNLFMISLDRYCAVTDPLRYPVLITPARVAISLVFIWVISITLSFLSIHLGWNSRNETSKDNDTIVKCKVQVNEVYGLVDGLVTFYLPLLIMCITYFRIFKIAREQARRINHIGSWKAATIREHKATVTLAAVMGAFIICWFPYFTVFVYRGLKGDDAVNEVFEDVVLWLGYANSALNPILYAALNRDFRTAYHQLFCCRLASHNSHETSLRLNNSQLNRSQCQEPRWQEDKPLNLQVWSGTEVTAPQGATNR

Row | Compound | Kb [nM]
1 | Cc1ccc(SNc2nc(NCCCOc3cccc(CN4CCCCC4)c3)n(C)n2)cc1 [Beispiel 1, 1-Methyl-5-[3-[3-(1-piperidinylmethyl)phenoxy]propylamino]-3-(4-methyl-benzolsulfenamido)-1H-1,2,4-triazol] | 1.58
2 | CNC(=C[N+](=O)[O-])NCCSCc1ccc(CN(C)C)o1 [Ranitidin] | 155
